The test system of series [1] is MSTO-211H mesothelioma cells. Nature of the series: Growth inhibition by iMDK combined with ABT263 (FIG. 5). Type of series: cell-based, human. The settings on record: 48 hours, ABT263 plus iMDK versus each drug alone. On the procedure: FIG. 5. ABT263 enhanced iMDK-mediated suppression of cell proliferation in MSTO-211H mesothelioma cells. […] Cell lines: The human malignant pulmonary mesothelioma cells MSTO-211H, H2452, H2052, H28 MESO-1 and MESO-4 were grown in RPMI 1640 supplemented with 10% heat-inactivated fetal bovine serum. The human pulmonary adenocarcinoma cells: H441 and the human embryonic kidney cells: HEK293 were grown in high glucose Dulbecco's modified Eagle supplemented with 10% heat-inactivated fetal bovine serum. All cell lines were cultured in 5% CO2 at 37° C.

The test system of a further series is midkine protein. Put plainly: Inhibition of midkine protein expression (Table, FIGS. 7-12). It is filed as cell-based. As to conditions: for Activity on protein expression: 1 uM of compound.
The subject of the next series is endogenous midkine. Nature of the series: Endogenous midkine expression in H441 cells by western blotting (FIG. 18A). The settings on record: H441 lung adenocarcinoma cells, 10 μM, 24 hours. It is filed as cell-based, human. The protocol: FIG. 18. […] A. H441 lung adenocarcinoma cells were treated with iMDK and related compounds at a final concentration of 10 μM. Twenty-four hours after treatment, cells were harvest and protein expression was assessed using western blotting assay. […] B. Shown is structures of compounds #2 (also known as F6). #3 (also known as iMDK), #5, #7, and #8. C. […] DMSO was used as control.
(§1) Cell lines: The human malignant pulmonary mesothelioma cells MSTO-211H, H2452, H2052, H28 MESO-1 and MESO-4 were grown in RPMI 1640 supplemented with 10% heat-inactivated fetal bovine serum. The human pulmonary adenocarcinoma cells: H441 and the human embryonic kidney cells: HEK293 were grown in high glucose Dulbecco's modified Eagle supplemented with 10% heat-inactivated fetal bovine serum. All cell lines were cultured in 5% CO2 at 37° C.

The test system of the next series is H441 cells. Nature of the series: Cell viability / toxicity in H441 cells (FIGS. 18C, 19). Type of series: cell-based, human. As to conditions: 10 μM, 3 days after treatment (not shown).
Another series deals with 293 cells. Put plainly: Cell viability, Wright-Giemsa staining (FIG. 18C), 293 cells. It is filed as cell-based, human. The settings on record: 10 μM, 3 days after treatment.
Another series relates to MESO4 mesothelioma cells. Nature of the series: Cell growth, cell count with Countess II (FIGS. 16, 17). The settings on record: MESO4, 48 hours, dose-dependent, vs DMSO control. It is filed as cell-based, human. On the procedure: FIG. 16. iMDK (#3) and its derivatives (A6, D9 and E6) inhibits growth of MESO4 mesothelioma cells. MESO4 mesothelioma cells were treated with iMDK (#3) or iMDK derivatives (A6, D9 or E6) at indicated different final concentrations.
FIG. 17. iMDK (#3) and its derivatives (F5, F6 and F7) inhibits growth of […] mesothelioma cells. MESO4 mesothelioma cells were treated with iMDK (#3) or iMDK derivatives (F5, F6 or F7) at indicated different final concentrations.
as §1

The subject of series [2] is MSTO211H mesothelioma cells. Put plainly: Cell growth, cell count with Countess II (FIGS. 14, 15). The settings on record: 48 hours, dose-dependent, vs DMSO control. Type of series: cell-based, human. The protocol: FIG. 14. iMDK (#3) and its derivatives (A6, D9 and E6) inhibits growth of MSTO211H mesothelioma cells. MSTO211H mesothelioma cells were treated with iMDK (#3) or iMDK derivatives (A6, D9 or E6) at indicated different final concentrations.
FIG. 15. iMDK (#3) and its derivatives (F5, F6 and F7) inhibits growth of MSTO211H mesothelioma cells. MSTO211H mesothelioma cells were treated with iMDK (#3) or iMDK derivatives (F5, F6 or F7) at indicated different final concentrations.
as §1

The subject of another series is H28 mesothelioma cells. Put plainly: Cell viability, trypan blue exclusion assay (FIG. 2), H28. It is filed as cell-based, human. As to conditions: H28, 48 hours of treatment. On the procedure: as §1, with “FIG. 2. iMDK suppressed cell viability of MDK expressing malignant pulmonary mesothelioma cells. […] Cell viability was assessed by trypan blue exclusion assay. Statistical significance was defined as p<0.01 (*). Cell” for “Cell”

For series [3], the system named is MSTO-211H cells. Put plainly: Colony formation, crystal violet staining (FIG. 3). It is filed as cell-based, human. As to conditions: fourteen days after treatment. On the procedure: as §1, with “Colony formation of MSTO-211H cells treated with iMDK. Fourteen days after the treatment, cells were fixed and stained with crystal violet. Representative images of experiments performed in triplicate are shown. Cell” for “Cell”

Series [4] concerns non-small cell lung cancer expressing MDK. The settings on record: previously reported; cited from earlier work.
The next series concerns H2452 mesothelioma cells. Nature of the series: Cell viability, trypan blue exclusion assay (FIG. 2), H2452. The settings on record: H2452, 48 hours of treatment. Type of series: cell-based, human. On the procedure:
as §1, with “FIG. 2. iMDK suppressed cell viability of MDK expressing malignant pulmonary mesothelioma cells. […] Cell viability was assessed by trypan blue exclusion assay. Statistical significance was defined as p<0.01 (*). Cell” for “Cell”

For series [5], the system named is MSTO-211H cells. Put plainly: Apoptosis by TUNEL staining (FIG. 4). It is filed as cell-based, human. As to conditions: 48 h treatment, dose dependent. The protocol: Cells were treated for 48 h at a indicated concentration of iMDK then TUNEL staining was performed to detect apoptosis using the DeadEnd colorimetric TUNEL system (Promega, Madison, WI) according to the manufacturer's protocol. Statistical significance was defined as p<0.01 (*). Cell lines: The human malignant pulmonary mesothelioma cells MSTO-211H, H2452, H2052, H28 MESO-1 and MESO-4 were grown in RPMI 1640 supplemented with 10% heat-inactivated fetal bovine serum. The human pulmonary adenocarcinoma cells: H441 and the human embryonic kidney cells: HEK293 were grown in high glucose Dulbecco's modified Eagle supplemented with 10% heat-inactivated fetal bovine serum. All cell lines were cultured in 5% CO2 at 37° C.

Another series relates to normal cells. The settings on record: previously reported; cited from earlier work.
In the next series the test system is H2052 mesothelioma cells. Put plainly: Cell viability, trypan blue exclusion assay (FIG. 2), H2052. It is filed as cell-based, human. As to conditions: H2052, 48 hours of treatment. The protocol: as §1, with “FIG. 2. iMDK suppressed cell viability of MDK expressing malignant pulmonary mesothelioma cells. […] Cell viability was assessed by trypan blue exclusion assay. Statistical significance was defined as p<0.01 (*). Cell” for “Cell”

Another series relates to PI3 kinase/Akt pathway. As to conditions: previously reported; cited from earlier work.
The subject of series [6] is MSTO-211H mesothelioma cells. Nature of the series: Cell viability, trypan blue exclusion assay (FIG. 2), MSTO-211H. Type of series: cell-based, human. As to conditions: 48 hours of treatment. On the procedure: as §1, with “FIG. 2. iMDK suppressed cell viability of MDK expressing malignant pulmonary mesothelioma cells. […] Cell viability was assessed by trypan blue exclusion assay. Statistical significance was defined as p<0.01 (*). Cell” for “Cell”

In series [7] the test system is MDK expressing non-small cell lung cancer cells. The settings on record: previously reported; cited from earlier work.
For series [8], the system named is tumors derived from MSTO-211H cells. Nature of the series: Malignant pleural mesothelioma xenograft mouse model (FIG. 6). The settings on record: i.p., compared to control (DMSO). Type of series: in vivo. An excerpt:
Eight mice were used in each group. Tumor growth is expressed as mean tumor volume; bars represent SD. Statistical significance was defined as p<0.05 (#)

“Also recorded” adds a separate entry of the source.

Consider `CC1(C)CCC(c2ccc(Cl)cc2)=C(CN2CCN(c3ccc(C(=O)NS(=O)(=O)c4ccc(N[C@H](CCN5CCOCC5)CSc5ccccc5)c(S(=O)(=O)C(F)(F)F)c4)cc3)CC2)C1` [ABT-263], for which the “growth inhibition in combination with iMDK” value in [1] is given as “more effective than each drug alone”; in [1] (listed as ABT263), “enhanced growth inhibition”.

As to `O=c1oc2ccccc2cc1-c1cn2cc(Cc3ccc(Cl)cc3)sc2n1` [Compound 1], the “Concentration to inhibit midkine protein expression” value with midkine protein was 1 µM. Further, the “Activity on protein expression” value in the series with midkine protein is given as “inhibits protein expression”. The endogenous midkine expression entry with endogenous midkine is listed as “suppressed endogenous midkine expression”. Further, the cell viability result in the series with H441 cells and with 293 cells was “inhibited cell viability” throughout. The “growth of cells (number of cells)” value (in the series with MESO4 mesothelioma cells; in [2]) was “significantly inhibited the growth” each time.

On to `O=c1oc2ccccc2cc1-c1cn2cc(Cc3ccccc3)sc2n1` [Compound 5], for which, in the series on midkine protein, the “Concentration to inhibit midkine protein expression” value turned out to be 10 µM and the “Activity on protein expression” value was “inhibits protein expression”. Moreover, the “growth of cells (number of cells)” value with MESO4 mesothelioma cells is “significantly inhibited the growth”. In addition, the “growth of cells (number of cells)” value in [2] is on record as “significantly inhibited the growth”.

`COc1ccc(Cc2cn3cc(-c4cc5ccccc5oc4=O)nc3s2)cc1` [Compound 6]: in the series with midkine protein, the “Concentration to inhibit midkine protein expression” value was 1 µM and the “Activity on protein expression” value is “inhibits protein expression”. Moreover, the “growth of cells (number of cells)” value in the series on MESO4 mesothelioma cells is reported as “significantly inhibited the growth”. Moreover, the “growth of cells (number of cells)” value in [2] is reported as “significantly inhibited the growth”.

`O=c1oc2ccccc2cc1-c1cn2cc(Cc3cccc(C(F)(F)F)c3)sc2n1` [Compound 7]: the “Concentration to inhibit midkine protein expression” value in the series on midkine protein amounted to 0.1 µM.

Take `Cc1ccc(Cc2cn3cc(-c4cc5ccccc5oc4=O)nc3s2)cc1` [Compound 8]: in the series with midkine protein, the “Concentration to inhibit midkine protein expression” value came to 1 µM and the “Activity on protein expression” value was “inhibits protein expression”. In addition, in the series with MESO4 mesothelioma cells, the “growth of cells (number of cells)” value was “significantly inhibited the growth”. The “growth of cells (number of cells)” value in [2] is listed as “significantly inhibited the growth”.

Turning to `O=c1oc2ccccc2cc1-c1cn2cc(Cc3ccc(C(F)(F)F)cc3)sc2n1` [Compound 9], in the series on midkine protein, the “Concentration to inhibit midkine protein expression” value was found to be 1 µM and the “Activity on protein expression” value is given as “inhibits protein expression”. In addition, in the series on MESO4 mesothelioma cells, the “growth of cells (number of cells)” value is “significantly inhibited the growth”. Further, the “growth of cells (number of cells)” value in [2] was “significantly inhibited the growth”.

With `COc1ccc(-c2cn3cc(Cc4ccc(F)cc4)sc3n2)cc1` [Compound 10], in the series on midkine protein, the “Concentration to inhibit midkine protein expression” value worked out at 10 µM and the “Activity on protein expression” value is given as “inhibits protein expression”. Besides, the “growth of cells (number of cells)” value with MESO4 mesothelioma cells is recorded as “significantly inhibited the growth”. Besides, the “growth of cells (number of cells)” value in series [2] is listed as “significantly inhibited the growth”.

For `O=c1oc2ccccc2cc1-c1cn2cc(Cc3ccc(F)cc3)sc2n1` [iMDK, 3-[2-(4-fluorobenzyl)imidazo[2,1-b][1,3]thiazol-6-yl]-2H-chromen-2-one], the “growth inhibition (cell viability)” value (in the series with H28 mesothelioma cells; with H2452 mesothelioma cells; in the series on H2052 mesothelioma cells; in series [6]) was “Dose-dependent growth inhibition” throughout. Besides, the colony formation result in the series with MSTO-211H cells [3] is “suppressed colony formation”. For the same compound, the “suppression of non-small cell lung cancer expressing MDK” value in [4] is recorded as “suppresses”. For the same compound, the “Concentration to inhibit midkine protein expression” value in the series with midkine protein was found to be 0.1 µM. Moreover, in the series on MSTO-211H cells [5], the “apoptosis (TUNEL positive cells)” value was “induced apoptosis; also recorded: significantly increased”. For the same compound, the “harm to normal cells” value with normal cells is “without harming”. For the same compound, the endogenous midkine expression entry in the series on endogenous midkine is reported as “suppressed endogenous midkine expression”. The “PI3 kinase/Akt pathway” value in the series with PI3 kinase/Akt pathway is reported as “inhibits”. In addition, the cell viability result in the series on H441 cells and with 293 cells was “inhibited cell viability” each time. The apoptosis result in series [7] is reported as “induces apoptosis”. Also, the “Volume of the tumors” value in series [8] (iMDK 5 mg/kg) and in series [8] (iMDK 9 mg/kg) was “significantly reduced” throughout. The “growth of cells (number of cells)” value (in the series with MESO4 mesothelioma cells; in series [2]) was “significantly inhibited the growth” throughout.

(Values after patent US12303513B2, “Methods and compositions to treat cancer” (Children's Hospital Medical Center, priority 2016, dated 2025).)
